The target of the assay is human mGluR5 (Homo sapiens, UniProt P41594). As to the kind of experiment: Cell-based functional Ca2+ mobilization assay, potentiation of glutamate EC20 response (H10H cell-line). The settings on record: H10H cell-line expressing recombinant human mGluR5; for Emax / Emax (%): in presence of glutamate EC20, normalized to maximal glutamate response; for EC50 / pEC50: potentiation in presence of glutamate EC20. On the procedure:
Human embryonic kidney (HEK) cells transfected with rat mGluR5 were plated in clear bottom assay plates for assay in a Functional Drug Screening System (FDSS). In the alternative assay, HEK cells transfected with human mGluR5 were plated for assay in the FDSS. In some cases the HEK cells transfected with human mGluR5 are the H10H cell line. Alternatively, the HEK cells transfected with human mGluR5 are the H12H cell line. […] The cells were loaded with a Ca^2+-sensitive fluorescent dye (e.g., Fluo-4), and the plates were washed and placed in the FDSS instrument. After establishment of a fluorescence baseline for about three seconds, the compounds of the present invention were added to the cells, and the response in cells was measured. Five minutes later, an mGluR5 agonist (e.g., glutamate, 3,5-dihydroxyphenylglycine, or quisqualate) was added to the cells, and the response of the cells was measured. Potentiation of the agonist response of mGluR5 by the compounds in the present invention was observed as an increase in response to non-maximal concentrations of agonist (here, glutamate) in the presence of compound compared to the response to agonist in the absence of compound.
The above described assay can be operated in two modes. In the first mode, a range of concentrations of the present compounds were added to cells, followed by a single fixed concentration of agonist. If a compound acted as a potentiator, an EC50 value for potentiation and a maximum extent of potentiation by the compound at this concentration of agonist was determined by non-linear curve fitting. In the second mode, several fixed concentrations of the present compounds were added to various wells on a plate, followed by a range of concentrations of agonist for each concentration of present compound; the EC50 values for the agonist at each concentration of compound were determined by non-linear curve fitting. A decrease in the EC50 value of the agonist with increasing concentrations of the present compounds (a leftward shift of the agonist concentration-response curve) is an indication of the degree of mGluR5 potentiation at a given concentration of the present compound. An increase in the EC50 value of the agonist with increasing concentrations of the present compounds (a rightward shift of the agonist concentration-response curve) is an indication of the degree of mGluR5 antagonism at a given concentration of the present compound. The second mode also indicates whether the present compounds also affect the maximum response to mGluR5 to agonists.
Human mGluR5a cDNA in pCMV6-XL6 mammalian expression plasmid was purchased from OriGene Technologies, Inc. (catalogue number SC326357) and subcloned into pcDNA3.1(−). Human embryonic kidney (HEK) 293A cells were then transfected with human mGluR5a pcDNA3.1(−) using LipofectAmine 2000 (Invitrogen) and monoclones were selected and tested for functional response using a Ca^2+ mobilization assay. Monoclones were named for the species (“H” for human) plus the location on the plate (e.g. “10H”).
HEK cells transfected with the human mGluR5a receptor were plated at 15,000 cells/well in clear-bottomed poly-D-lysine-coated assay plates (BD Falcon) in glutamate-glutamine-free growth medium and incubated overnight at 37° C. and 5% CO2. The cell-line used to obtain the data reported herein was the H10H cell-line expressing the human mGluR5 receptor. Although the H10H cell-line was used to obtain the data shown herein, the H12H cell-line expressing the human mGluR5 receptor can also be used in these assays. The following day, the growth medium was removed and the cells were washed with assay buffer containing 1× Hank's balanced salt solution (Invitrogen, Carlsbad, Calif.), 20 mM HEPES, 2.5 mM probenecid, pH 7.4 and left with 20 μL of this reagent. Following this step, the cells were loaded with calcium indicator dye, fluo-4 AM, to a final concentration of 2 μM and incubated for 40-45 min at 37° C. […]
In general terms: Calcium assays in cells follow changes in intracellular calcium, usually with a dye or a luminescent sensor.

The structures appear in SMILES notation.

By Emax is commonly meant the maximal effect, on the per cent scale that the assay sets. By EC50 is commonly meant the concentration that produces a half-maximal response. What is called pEC50 is −log10 of the EC50, conventionally taken in molar units.

Chain of human mGluR5 (P41594 21-1180 isoform P41594-2 limits assumed): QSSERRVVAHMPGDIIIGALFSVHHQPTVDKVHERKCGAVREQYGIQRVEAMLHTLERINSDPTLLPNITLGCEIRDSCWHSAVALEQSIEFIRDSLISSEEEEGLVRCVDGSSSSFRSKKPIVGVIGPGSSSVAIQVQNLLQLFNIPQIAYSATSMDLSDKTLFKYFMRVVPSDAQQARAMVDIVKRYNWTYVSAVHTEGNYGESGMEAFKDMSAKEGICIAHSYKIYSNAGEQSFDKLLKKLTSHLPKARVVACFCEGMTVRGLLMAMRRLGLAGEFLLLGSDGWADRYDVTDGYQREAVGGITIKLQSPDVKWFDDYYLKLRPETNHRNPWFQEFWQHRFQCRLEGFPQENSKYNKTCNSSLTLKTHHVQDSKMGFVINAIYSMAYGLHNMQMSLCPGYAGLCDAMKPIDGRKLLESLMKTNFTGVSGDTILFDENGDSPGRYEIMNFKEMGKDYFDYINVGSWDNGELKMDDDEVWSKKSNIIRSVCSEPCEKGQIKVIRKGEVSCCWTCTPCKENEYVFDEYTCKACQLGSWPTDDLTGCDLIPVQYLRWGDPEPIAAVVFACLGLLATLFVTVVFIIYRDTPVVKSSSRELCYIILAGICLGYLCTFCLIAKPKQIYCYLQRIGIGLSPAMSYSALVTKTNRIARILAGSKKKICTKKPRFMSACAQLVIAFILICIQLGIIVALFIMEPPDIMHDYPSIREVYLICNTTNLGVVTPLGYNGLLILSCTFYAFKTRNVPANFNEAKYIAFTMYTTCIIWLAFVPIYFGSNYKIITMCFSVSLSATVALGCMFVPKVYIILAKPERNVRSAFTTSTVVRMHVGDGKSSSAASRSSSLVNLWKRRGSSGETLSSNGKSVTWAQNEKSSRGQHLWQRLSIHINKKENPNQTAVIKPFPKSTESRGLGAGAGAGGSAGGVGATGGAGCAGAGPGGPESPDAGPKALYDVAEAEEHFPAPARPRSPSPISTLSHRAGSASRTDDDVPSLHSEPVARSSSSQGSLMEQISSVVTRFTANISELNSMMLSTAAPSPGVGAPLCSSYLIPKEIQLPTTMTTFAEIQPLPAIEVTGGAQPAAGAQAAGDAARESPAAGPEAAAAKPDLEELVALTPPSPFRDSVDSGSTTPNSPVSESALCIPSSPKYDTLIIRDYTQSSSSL

Regarding `O=C(CC1CC1)N1CCc2nc(COc3ccccc3)oc2C1` [Example B2, 5-(cyclopropylacetyl)-2-(phenoxymethyl)-4,5,6,7-tetrahydro[1,3]oxazolo[5,4-c]pyridine], the maximal effect (Emax) worked out at 58% and the EC50 was 3550 nM.

As to `O=C(c1cc(F)cc(F)c1)N1CCc2nc(COc3ccccc3)oc2C1` [Example B3, 5-[(3,5-difluorophenyl)carbonyl]-2-(phenoxymethyl)-4,5,6,7-tetrahydro[1,3]oxazolo[5,4-c]pyridine], the Emax was 47% and the EC50 is 132 nM.

`O=C(c1ccc(F)cc1)N1CCc2nc(COc3ccccc3)oc2CC1` [Example B4, 6-[(4-fluorophenyl)carbonyl]-2-(phenoxymethyl)-5,6,7,8-tetrahydro-4H-[1,3]oxazolo[4,5-d]azepine]: the Emax amounted to 76% and the 50% effective concentration (EC50) was 3390 nM.

Turning to `O=C(c1ccc(F)cc1F)N1CCc2nc(COc3ccccc3)oc2C1` [Example B6], the maximal effect (Emax) came to 92% and the concentration giving a half-maximal response (EC50) was 501 nM.

`O=C(c1ccc(F)cc1)N1CCc2nc(COc3cccc(F)c3)oc2C1` [Example B8, 5-(4-fluorobenzoyl)-2-[(3-fluorophenoxy)methyl]-4,5,6,7-tetrahydro-oxazolo[5,4-c]pyridine]: the maximum response (Emax) worked out at 74% and the EC50 was 219 nM.

Regarding `O=C(c1ccccc1F)N1CCc2nc(COc3ccccc3)oc2C1` [Example B9], the Emax came to 68% and the EC50 was 490 nM.

As to `O=C(c1ccc(F)cc1)N1CCc2nc(COc3ccc(F)cc3)oc2C1` [Example B10], the maximum response (Emax) was determined as 75% and the negative-log EC50 (pEC50) was found to be 6.18.

Consider `O=C(c1ccc(F)cc1)N1CCc2nc(COc3ccc(F)c(F)c3)oc2C1` [Example B11], for which the Emax is 60% and the negative logarithm of the EC50 (pEC50) came out at 6.19.

On to `O=C(c1ccc(F)cc1F)N1CCc2nc(COc3ccccc3)sc2C1` [Example B12], for which the “Emax (%)” value is 69% and the negative logarithm of the EC50 (pEC50) was 6.06.

Consider `O=C(c1ccc(F)cc1)N1CCc2nc(COc3ccccc3F)oc2C1` [Example B13], for which the Emax is 68% and the EC50 was 1150 nM.

With `O=C(c1ccc(F)cc1)N1CCc2nc(/C=C/c3ccccc3)oc2C1` [Example B14], the maximal effect (Emax) stood at 48% and the EC50 was 1550 nM.

With `O=C(c1cccc(F)c1F)N1CCc2nc(COc3ccccc3)oc2C1` [Example B15], the “Emax (%)” value worked out at 74% and the pEC50 was 6.43.

As to `O=C(c1c(F)cccc1F)N1CCc2nc(COc3ccccc3)oc2C1` [Example B16], the Emax is 82% and the half-maximal effective concentration (EC50) was 372 nM.

`O=C(c1ccc(F)c(F)c1)N1CCc2nc(COc3ccccc3)oc2C1` [Example B17]: the “Emax (%)” value was found to be 86% and the negative logarithm of the EC50 (pEC50) is given as 6.60.

In the case of `O=C(c1cccnc1)N1CCc2nc(COc3ccccc3)oc2C1` [Example B18], the “Emax (%)” value is 69% and the pEC50 is 5.33.

For `O=C(c1ccncc1)N1CCc2nc(COc3ccccc3)oc2C1` [Example B19], the Emax turned out to be 69% and the concentration for a half-maximal effect (EC50) is 4790 nM.

On to `O=C(OCc1ccccc1)N1CCc2nc(COc3ccccc3)oc2C1` [Example B20], for which the “Emax (%)” value came out at 72% and the pEC50 was 5.82.

Regarding `O=C(c1ccc(F)cc1)N1Cc2nc(COc3ccccc3)oc2C1` [Example B21], the “Emax (%)” value turned out to be 81% and the negative-log EC50 (pEC50) was found to be 6.05.

As for `O=C(c1ccc(F)cc1)N1CCc2oc(COc3ccccc3)nc2C1` [Example B22], the Emax worked out at 65% and the EC50 is 1620 nM.

As to `O=C(c1ccccn1)N1CCc2nc(COc3ccccc3)oc2C1` [Example B23], the “Emax (%)” value was determined as 54% and the negative logarithm of the EC50 (pEC50) is recorded as less than 5.

On to `CC(=O)N1CCc2nc(COc3ccccc3)oc2C1` [Example B24], for which the maximal response (Emax) was found to be 53% and the EC50 is more than 10000 nM.

Regarding `O=C(c1ccc(F)cc1)N1CCCc2nc(COc3ccccc3)sc2C1` [Example B25], the “Emax (%)” value turned out to be 83% and the pEC50 came to 6.35.

For `O=C(c1cccc(F)c1F)N1CCc2nc(COc3cccc(F)c3)oc2C1` [Example B28], the “Emax (%)” value is 72% and the pEC50 was 6.24.

With `O=C(c1ccc(F)c(F)c1)N1CCc2nc(COc3cccc(F)c3)oc2C1` [Example B29], the “Emax (%)” value is 75% and the pEC50 is 6.62.

Take `O=C(c1ccc(F)cc1)N1CCc2nc(/C=C/c3ccccc3)oc2CC1` [Example B31, 6-(4-fluorobenzoyl)-5,6,7,8-tetrahydro-2-[(E)-2-phenylethenyl]-4H-oxazolo[4,5-d]azepine]: the Emax was 47% and the EC50 was 1820 nM.

As to `O=C(C1CC1)N1CCc2nc(COc3ccccc3)oc2C1` [Example B32], the maximum response (Emax) was determined as 39% and the half-maximal effective concentration (EC50) was 3020 nM.

As for `Cc1ccnc(OCc2nc3c(o2)CN(C(=O)c2ccc(F)cc2)CC3)c1` [Example B33, 5-[(4-fluorophenyl)carbonyl]-2-{[(4-methylpyridin-2-yl)oxy]methyl}-4,5,6,7-tetrahydro[1,3]oxazolo[5,4-c]pyridine], the Emax worked out at 69% and the EC50 was 2000 nM.

With `Cn1c(C(=O)N2CCc3nc(COc4ccccc4)oc3C2)cc2ccccc21` [Example B36, 5-[(1-methyl-1H-indol-2-yl)carbonyl]-2-(phenoxymethyl)-4,5,6,7-tetrahydro[1,3]oxazolo[5,4-c]pyridine], the maximum response (Emax) is 56% and the EC50 was 501 nM.

`Cc1ccccc1OCc1nc2c(o1)CN(C(=O)c1ccc(F)cc1)CC2` [Example B37]: the Emax stood at 57% and the EC50 is 2400 nM.

For the compound `O=C(c1ncc(F)cc1F)N1CCc2nc(COc3ccccc3)oc2C1` [Example B38], the Emax came to 60% and the EC50 was 4070 nM.

With `Cc1ncccc1C(=O)N1CCc2nc(COc3ccccc3)oc2C1` [Example B41], the Emax turned out to be 50% and the half-maximal effective concentration (EC50) is 6030 nM.

As to `Cc1cccnc1C(=O)N1CCc2nc(COc3ccccc3)oc2C1` [Example B42], the “Emax (%)” value worked out at 58% and the pEC50 is listed as less than 5.

In the case of `Cc1cccc(C(=O)N2CCc3nc(COc4ccccc4)oc3C2)n1` [Example B44], the “Emax (%)” value is recorded as 64% and the negative-log EC50 (pEC50) is 5.7.

In the case of `O=C(c1ccc(F)cn1)N1CCc2nc(COc3cccc(F)c3)oc2C1` [Example B45], the “Emax (%)” value is recorded as 66% and the negative logarithm of the EC50 (pEC50) is given as 5.51.

For the compound `N#Cc1ccccc1C(=O)N1CCc2nc(COc3ccccc3)oc2C1` [Example B46], the maximum response (Emax) was determined as 63% and the EC50 was 1620 nM.

Consider `O=C(c1ncccc1F)N1CCc2nc(COc3ccccc3)oc2C1` [Example B47], for which the maximum response (Emax) came to 56% and the 50% effective concentration (EC50) was more than 10000 nM.

With `O=C(c1ccc(F)cc1)N1CCc2nc(COc3cncc(F)c3)oc2C1` [Example B48], the “Emax (%)” value came to 62% and the pEC50 came out at 5.49.

With `N#Cc1cc(F)cc(C(=O)N2CCc3nc(COc4ccccc4)oc3C2)c1` [Example B50], the “Emax (%)” value was found to be 57% and the pEC50 is listed as 6.43.

`O=C(Cc1ccc(F)cc1)N1CCc2nc(COc3ccccc3)oc2C1` [Example B51]: the “Emax (%)” value came out at 61% and the pEC50 worked out at 5.92.

For the compound `O=C(c1ccc(S(F)(F)(F)(F)F)cc1)N1CCc2nc(COc3ccccc3)oc2C1` [Example B52], the “Emax (%)” value is reported as 51% and the negative logarithm of the EC50 (pEC50) came to 5.24.

For the compound `N#Cc1cccc(OCc2nc3c(o2)CN(C(=O)c2ccc(F)cc2)CC3)c1` [Example B53], the Emax turned out to be 66.5% and the EC50 is 1260 nM.

Values taken from patent US9090632B2, “Bicyclic oxazole and thiazole compounds and their use as allosteric modulators of mGluR5 receptors” (Vanderbilt University, priority 2010, dated 2015).
